Reference: patent US5411707A, “Vacuum extractor incorporating a condenser column” (priority 1994, dated 1995)
Values joined by “and” are separate entries in the source; they are usually repeats but may differ in a detail not shown here. Identical values can stand only once. Like-named read-outs stand apart in the source and are kept apart here.

Key:
[1] = cited from earlier work
[2] = 1 gram cod liver oil, 200 ppb spike recovery only
Text: The cryotrap is placed in liquid nitrogen which is replaced as needed throughout the operation. The sample valve is placed in the load position. Samples are placed in the sample chamber and the chamber attached to the apparatus. The coolant/heat valve is adjusted so that the condenser fluid is circulating and at the desired temperature. The vacuum pump is turned on and the vacuum pump valve and sample chamber valve are opened to begin distillation/purging. After five minutes the pressure at the vacuum pump, as measured by a Pirani gauge reads about 0.1 Torr and a Pirani gauge reads less than about 250 Torr at the sample chamber. Distillation continues for another five minutes to complete distillation at which time the sample chamber pressure should be approximately 10 Torr.
Once distillation is complete, the sampling valve is adjusted to the injection position. The liquid nitrogen is removed from the cryotrap and replaced with a beaker of hot (about 90° C.) tap water. The GC/MS then begins to collect data. At this stage, the sample chamber may be removed and the apparatus prepared for another sample. If multiple samples are connected, a new sample chamber may be connected in sequence.

| SMILES | SOLUBIL. IN H2O ([1]; in H2O) | other results |
| --- | --- | --- |
| Clc1cccc(Cl)c1Cl [1,2,3-Trichloro benzene] | 1 PPM | – |
| Cc1ccc(C)c(C)c1 [1,2,4-Trimethyl benzene] | – | SOLUBIL. IN H2O ([1]; water): 1 PPM |
| Clc1ccccc1Cl [1,2-Dichlorobenzene] | 10000 PPM | – |
| Cc1cc(C)cc(C)c1 [1,3,5-Trimethyl benzene] | 2000 PPM | – |
| Clc1cccc(Cl)c1 [1,3-Dichlorobenzene] | 11000 PPM and 10000 PPM | – |
| Cc1ccc(O)c(C)c1 [2,4-Dimethylphenol] | 5 PPM | – |
| CCC(C)=O [2-Butanone] | – | Oil Recovery (200 ppb spike only) [2]: 128 ± 21.5% |
| Oc1ccccc1Cl [2-Chlorophenol] | 5 PPM | – |
| Cc1ccccc1O [2-Methylphenol] | 775000 PPM | – |
| Nc1ccccc1[N+](=O)[O-] [2-Nitroaniline] | 5 PPM | – |
| Cc1ccccn1 [2-Picoline] | – | SOLUBIL. IN H2O ([1]; water): 1000000 PPM |
| Cc1cc(O)ccc1Cl [4-Chloro-3-methyl phenol] | 1 PPM | – |
| Nc1ccc(Cl)cc1 [4-Chloroaniline] | 5 PPM | – |
| Cc1ccc(Cl)cc1 [4-Chlorotoluene] | 5 PPM | – |
| CC(=O)c1ccccc1 [Acetophenone] | 5500 PPM | – |
| C=CC#N [Acrylonitrile] | 73000 PPM | – |
| C=CCCl [Allyl chloride] | 3600 PPM | – |
| Nc1ccccc1 [Aniline] | 32500 PPM | – |
| OCc1ccccc1 [Benzyl alcohol] | 80000 PPM | – |

| SMILES | SOLUBIL. IN H2O ([1]; in H2O) | other results |
| --- | --- | --- |
| Brc1ccccc1 [Bromobenzene] | 400 PPM | – |
| c1ccc2c(c1)oc1ccccc12 [Dibenzofuran] | 1 PPM | – |
| BrCBr [Dibromomethane] | 11500 PPM | – |
| CCOCC [Diethyl ether] | 60400 PPM | – |
| C=C(C)C(=O)OC [Methyl methacrylate] | 16000 PPM | – |
| c1ccc2ccccc2c1 [Naphthalene] | 3400 PPM | – |
| Clc1cc(Cl)c(Cl)c(Cl)c1Cl [Pentachlorobenzene] | 1 PPM | – |
| ClCCOCCCl [bis(2-Chloroethyl) ether] | 1 PPM | – |
| CC(C)c1ccccc1 [iso-Propylbenzene] | 5000 PPM | – |
| CCCCc1ccccc1 [n-Butylbenzene] | 5000 PPM | – |
| CCCN(CCC)N=O [n-Nitroso-di-n-propylamine] | 5 PPM | – |
| O=NN1CCCCC1 [n-Nitroso-piperidine] | 1000000 PPM | – |
| O=NN1CCOCC1 [n-Nitrosomorpholine] | 1000000 PPM | – |
| CCCc1ccccc1 [n-Propylbenzene] | 60 PPM | – |
| Cc1ccccc1N [o-Toluidine] | 17000 PPM | – |
| Cc1ccc(C(C)C)cc1 [para-iso-Propyl toluene] | 1 PPM | – |
| CCC(C)c1ccccc1 (stereo not shown) [sec-butylbenzene] | 320 PPM | – |
| CC(C)(C)c1ccccc1 [tert-Butlybenzene] | 290 PPM | – |
